The test system of data set [1] is Pf-3D7 gametocytes >95% Stage I-III. The experiment in a line: Gametocyte luciferase assay (3D7elo1-pfs16-CBG99). Type of data set: cell-based, P. falciparum. On the procedure:
(§1) In vitro activity of MG3 against P falciparum sexual gametocyte stages […]
(§2) luminescent transgenic 3D7 strain (3D7elo1-pfs16-CBG99) at two different stages (I-III and V) using the […]
(§3) Briefly, 100 µL of culture medium were removed from each well to increase hematocrit; 70 µL of resuspended culture were transferred to a black 96-well plate; 70 µL of D-luciferin (1 mM in citrate buffer 0.1 M, pH 5.5) were added. Luminescence measurements were performed after 10 min with 500 ms integration time using a Synergy4-BioTek reader.
(§4) (1 picture or pasted object on this page, not shown here)

In data set [2] the test system is Pf-3D7 gametocytes >95% Stage V. Put plainly: Gametocyte luciferase assay (3D7elo1-pfs16-CBG99). It counts as cell-based, P. falciparum. As to conditions: Plasmodium falciparum, 3D7, read-out: Pf-3D7 gametocytes IC50 (nM), >95% Stage V. On the procedure: as §1, §2, §3, §4
Data set [3] relates to P. falciparum V1-S (CQ-R). The experiment in a line: In vitro antimalarial activity, [3H]-hypoxanthine incorporation (LSHTM). Type of data set: cell-based. The following applies: Plasmodium falciparum; 72 h, [3H]-hypoxanthine incorporation, mean of 3 experiments; read-out: P. falciparum IC50 nM, V1-S (CQ-R).
Data set [4] relates to beta-hematin (malaria pigment) formation. Also on record: method as in PMID 18538567. As to conditions: in vitro BHIA; cited from earlier work.
A short description of a further data set: 7-day oral DRF in dog. It counts as in vivo, Beagle dog. As to conditions: dogs, 15 and 30 mg/kg/day oral, 7 days. On the procedure: Seven days oral DRF in rats and dog, and five days oral DRF in Non-Human Primates (NHP) were performed using Sprague Dawley rats (n = 3/time point) of both sexes, one male and one female dog Beagle (Marshall/Green Hill) and one male and one female monkeys/Cynomolgus (Noveprim Ltd., Mahebourg Mauritius,). MG3 was administered as oral suspension in 0.5% methocel in water (400 cP viscosity) at the following doses: 30, 60 and 120 mg/kg/day for 7 days (rat), 15 and 30 mg/kg/days for 7 days (dog) and 25, 50 and 75 mg/kg/day (NHP). No Observed Effects Levels (NOEL) were determined. Mortality, behavior, and general conditions were observed daily. Body weight was recorded pre-test, and on Days 1, 4 and 7. Food consumption was recorded from Days 1 to 4 and 4 to 7. Hematological and clinical chemistry examinations were performed on Day 8. All animals were sacrificed under anesthesia at the end of the treatment period on Day 8 of study. Post-mortem examinations included necropsy, collection, and histological examination performed of selected organs/tissues.

For a further data set, the target named is CYP2C9 (Homo sapiens, UniProt P11712). Put plainly: in vitro.
Chain of CYP2C9 (P11712 whole entry): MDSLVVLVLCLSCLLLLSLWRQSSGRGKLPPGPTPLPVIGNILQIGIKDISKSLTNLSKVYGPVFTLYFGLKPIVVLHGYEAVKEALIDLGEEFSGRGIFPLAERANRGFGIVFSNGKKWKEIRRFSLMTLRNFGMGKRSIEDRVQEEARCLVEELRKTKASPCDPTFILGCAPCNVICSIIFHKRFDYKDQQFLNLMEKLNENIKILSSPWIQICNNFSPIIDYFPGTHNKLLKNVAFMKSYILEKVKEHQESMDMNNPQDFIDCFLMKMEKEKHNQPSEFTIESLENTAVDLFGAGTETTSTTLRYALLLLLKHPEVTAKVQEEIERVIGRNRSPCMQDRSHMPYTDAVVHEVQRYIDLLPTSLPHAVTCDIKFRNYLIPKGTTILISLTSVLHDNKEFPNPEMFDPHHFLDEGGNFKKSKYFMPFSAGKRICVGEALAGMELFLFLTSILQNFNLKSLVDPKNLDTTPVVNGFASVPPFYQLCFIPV
For the next data set, the system named is P. falciparum K1 (CQ-R). Put plainly: In vitro combination study (isobologram, ∑FIC). It counts as cell-based.
For another data set, the system named is P. chabaudi AS. Put plainly: Four-day suppressive Peters' test, oral. Type of data set: in vivo, P. chabaudi in CD1 mice. The following applies: once a day for 4 days, parasitemia day 4, CD1 mice. On the procedure:
Groups of five CD1 mice were inoculated i.v., with 4 × 10^6 infected erythrocytes/mice. Compounds, dissolved in standard suspending formula (SSV) (0.5% sodium carboxymethylcellulose, 0.5% benzyl alcohol, 0.4% Tween 80, and 0.9% NaCl), were administered once a day for 4 days via oral gavage, starting two hours post-infection. […] Parasitemia was evaluated using microscopic examination of Giemsa-stained blood films taken on day four, processed using MICROSOFT® EXCEL spreadsheets (Microsoft Corp., Redmond, WA, USA), and expressed as percentages of inhibition from the arithmetic mean parasitemia of each group in relation to the untreated group. ED50 and ED90 values were calculated using GraphPad Prism 6 (GraphPad Software Inc., La Jolla, CA, USA).

For the next data set, the system named is P. falciparum W2 (CQ-R). The arrangement: method as in PMID 18538567. The following applies: 72 h incubation, pLDH method, mean of 3 experiments; cited from earlier work.
The next data set concerns rat hepatocytes. Put plainly: Metabolic profiling in hepatocytes. It counts as in vitro ADME. As to conditions: rat hepatocytes, MG3 10 µM, 1 h incubation, semi-quantitative. On the procedure:
(§5) For metabolite profiling, MG3.2HCl (10 µM) was incubated with mouse, rat, dog, monkey, and human hepatocytes (300,000 cells/mL for the mouse and 1 × 10^6 cells/mL for the other species) in Leibovitz L-15 medium, at 37 °C. Incubations were performed in a 12-well plate under shaking. Aliquots of the incubation samples, together with a control in medium alone, were taken at t = 0 and 60 min; the metabolism was stopped by the addition of an equal volume of chilled ACN and the samples were centrifuged at 1100 rpm for 20 min. The supernatant was stored at −20 °C until analysis. The analyses were performed using an HPLC system (Agilent) online with a photodiode array (PDA) detector (Agilent) coupled to a Mass Spectrometer Q-TOF 2 (Waters), ESI positive, following the method reported in Table 1.
(§6) The software utilized for searching the accurate masses of possible metabolites was Metabolynx, version 4.1 (Waters Corporation, Milford, MA, USA), with a mass window of 40 mDa. Samples were then re-run in MS/MS mode by selecting the masses of possible metabolites found. The collision energy used to obtain MS/MS data was 25 eV. The proposed identity of metabolites was based on their accurate mass (using LockSpray correction), with an accuracy of +/−5 mDa. MS/MS analyses were performed to verify that peaks were drug-related and to obtain structural information from the fragment ions formed. The structures of some metabolites are proposed. The approximate relative amounts of parent and metabolites were determined from the absolute areas taken from a selected ion chromatogram at the metabolite masses with a mass window of 0.04 Da.

The test system of another data set is human hepatocytes. The experiment in a line: Metabolic profiling in hepatocytes. As to conditions: human hepatocytes, MG3 10 µM, 1 h incubation, semi-quantitative. Type of data set: in vitro ADME. On the procedure: as §5, §6
The next data set deals with CYP1A2 (Homo sapiens, UniProt P05177). Put plainly: in vitro.
Chain of CYP1A2 (P05177 whole entry): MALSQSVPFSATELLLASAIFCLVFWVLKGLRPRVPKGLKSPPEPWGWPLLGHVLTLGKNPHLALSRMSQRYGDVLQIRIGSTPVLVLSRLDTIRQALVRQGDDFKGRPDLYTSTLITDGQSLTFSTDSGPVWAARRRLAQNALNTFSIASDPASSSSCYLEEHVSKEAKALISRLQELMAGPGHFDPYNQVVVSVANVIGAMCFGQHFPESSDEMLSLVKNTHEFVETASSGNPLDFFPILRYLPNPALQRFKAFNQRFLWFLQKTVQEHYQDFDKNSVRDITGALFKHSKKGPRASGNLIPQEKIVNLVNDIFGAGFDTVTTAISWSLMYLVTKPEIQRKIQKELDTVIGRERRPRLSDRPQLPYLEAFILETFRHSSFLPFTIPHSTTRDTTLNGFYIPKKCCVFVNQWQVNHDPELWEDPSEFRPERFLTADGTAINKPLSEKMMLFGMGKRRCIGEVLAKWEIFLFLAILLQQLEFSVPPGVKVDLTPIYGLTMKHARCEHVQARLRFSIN
The next data set concerns the target hERG K+ channel (Homo sapiens, UniProt Q12809). The experiment in a line: [3H]-astemizole binding assay in HEK293 cell membranes.
A further data set is described as follows: in vivo. As to conditions: CD1, mouse, po, 10 mg/kg, AUClast.

Here are results for one molecule from paper PMC10216263, “Favorable Preclinical Pharmacological Profile of a Novel Antimalarial Pyrrolizidinylmethyl Derivative of 4-amino-7-chloroquinoline with Potent In Vitro and In Vivo Activities” (Biomolecules, 2023).

Like-named read-outs stand apart in the source and are kept apart here.

Chain of hERG K+ channel (Q12809 whole entry): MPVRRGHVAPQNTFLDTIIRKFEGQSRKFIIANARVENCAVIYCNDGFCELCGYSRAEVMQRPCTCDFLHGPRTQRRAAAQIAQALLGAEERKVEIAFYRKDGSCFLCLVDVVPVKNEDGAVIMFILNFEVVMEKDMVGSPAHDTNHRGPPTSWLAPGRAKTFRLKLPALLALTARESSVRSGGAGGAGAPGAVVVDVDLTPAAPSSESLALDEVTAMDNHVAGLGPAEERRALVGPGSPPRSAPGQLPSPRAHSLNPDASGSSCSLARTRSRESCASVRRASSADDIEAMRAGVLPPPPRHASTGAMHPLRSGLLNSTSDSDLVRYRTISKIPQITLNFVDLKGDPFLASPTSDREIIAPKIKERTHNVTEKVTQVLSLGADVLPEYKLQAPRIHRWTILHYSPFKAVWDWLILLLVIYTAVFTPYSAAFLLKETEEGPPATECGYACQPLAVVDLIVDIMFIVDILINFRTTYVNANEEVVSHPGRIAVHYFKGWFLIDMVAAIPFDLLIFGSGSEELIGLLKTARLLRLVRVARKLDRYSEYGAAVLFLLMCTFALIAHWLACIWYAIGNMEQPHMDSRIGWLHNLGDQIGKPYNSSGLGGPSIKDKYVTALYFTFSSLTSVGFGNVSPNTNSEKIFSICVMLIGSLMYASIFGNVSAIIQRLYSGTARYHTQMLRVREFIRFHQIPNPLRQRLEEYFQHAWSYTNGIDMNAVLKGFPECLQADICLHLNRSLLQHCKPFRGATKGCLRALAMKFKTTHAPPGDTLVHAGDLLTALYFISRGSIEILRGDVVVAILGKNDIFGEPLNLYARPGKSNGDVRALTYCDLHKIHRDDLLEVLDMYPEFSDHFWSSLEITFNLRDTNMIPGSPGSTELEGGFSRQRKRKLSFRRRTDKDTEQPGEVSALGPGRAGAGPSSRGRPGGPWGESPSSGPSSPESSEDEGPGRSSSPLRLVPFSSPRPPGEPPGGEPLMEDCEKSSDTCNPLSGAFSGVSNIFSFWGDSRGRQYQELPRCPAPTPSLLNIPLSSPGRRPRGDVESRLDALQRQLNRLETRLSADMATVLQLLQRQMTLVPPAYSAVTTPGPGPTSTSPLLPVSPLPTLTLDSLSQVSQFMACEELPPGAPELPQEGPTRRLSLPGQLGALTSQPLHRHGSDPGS
Method for hERG K+ channel: Methods for hERG interaction
Membranes were prepared from HEK293 cells stably transfected with the human ERG (ether-a-go-go related
gene; U04270) from Cytomix.
was used as radioligand. Non-specific binding was evaluated in the presence of an excess of 10 µM cold
The concentration-response curve was performed in a range from 0.03 to 30 µM (seven

As for `Clc1ccc2c(NCC34CCCN3CCC4)ccnc2c1` [MG3, 7-Chloro-N-((hexahydro-1H-pyrrolizin-7a-yl)methyl)quinolin-4-amine], the IC50 in data set [1] (Plasmodium falciparum, 3D7, read-out: Pf-3D7 gametocytes IC50 (nM), >95% Stage I-III, luciferase readout, 3D7elo1-pfs16-CBG99) was 102 ± 22.1 nM; in data set [1] (read-out: Pf-3D7 gametocytes IC50 (nM), >95% Stage I-III, luciferase readout, 3D7elo1-pfs16-CBG99), about 100 nM; in [2], 10700 ± 2790 nM; in data set [3] it was 25.7 nM; with P. falciparum W2 (CQ-R), 28.9 nM. Besides, the “inhibition of beta-hematin formation” value in data set [4] was “able to inhibit the formation of beta-hematin”. Further, in “7-day oral DRF in dog”, the toxicity finding entry is “associated with mortality one week after last treatment due to acute renal failure”. The inhibition at 3 µM at CYP2C9 came out at 8.8 ± 2.2%; against CYP1A2, 12.1 ± 1.2%. Also, the “Mean ∑FIC50 (95% CI)” value in the data set with P. falciparum K1 (CQ-R) (in combination with ASN, K1, IC50 level) was 1.25 (0.94 – 1.56); in the data set with P. falciparum K1 (CQ-R) (in combination with DHA, K1, IC50 level), 1.25 (1.21 – 1.29); in the data set on P. falciparum K1 (CQ-R) (in combination with RKA-182, K1, IC50 level), 1.24 (0.85 – 1.63). Besides, in the data set on P. falciparum K1 (CQ-R) (in combination with azitromycin, K1 (CQ-R)), the “interaction (isobologram)” value is recorded as “additive”. In addition, in the data set with P. chabaudi AS (Plasmodium chabaudi, 96 h, read-out: ED50 (95% CI) Mean), the ED50 came out at 4.69 mg/kg. Besides, in the data set with P. chabaudi AS, the “ED90 (95% CI) Mean” value is given as 9.80 (8.86–10.6) mg/kg. The “% of Total Drug Related Material” value is 53% with rat hepatocytes and 82% in the data set with human hepatocytes. At hERG K+ channel, this molecule came in with a Ki of 553 ± 45 nM. The AUC(0-t) in the data set “in vivo” was 1030 ng·h/mL.

Broadly, the IC50 is the concentration needed to halve the response being measured. As a reminder, the inhibition is the drop in the measured response relative to a control, in per cent. A lower inhibition goes with a weak effect. A word on the ED50: it is the midpoint of the dose-response relation. The term Ki denotes the equilibrium dissociation constant of an inhibitor or competing ligand from its target. Usually AUC(0-t) stands for the area under the concentration-time curve up to a stated or last time point. Read a low AUC(0-t) as low exposure.
